Results from US8273744B2, “AMPK modulators” (priority 2008, dated 2012).

System: AMPK
Test: In vitro assay of AMPK activity (AlphaScreen, phosphorylation of human ACC1 fragment aa 1-120)
Assay type: biochemical
Conditions: AMPK partially purified from HEK cells, 100 uM ATP, room temperature, 60 minutes, read-out: ED50 (the source's name)
Method: AMPK activity was measured by the phosphorylation of the amino-teminal fragment of human acetyl CoA carboxylase-type 1, amino acids 1-120. The fragment was expressed as a biotinylated fusion protein in E. coli. The enzyme assay was conducted in a 5 ul reaction mixture containing 60 mM HEPES, pH7.0, 50 mM NaCL, 1 mM DTT, 5 mM MgCL2, 0.05% Tween-20, 100 uM ATP and with 25 uM AMP as a positive control. The reaction was carried out at room temperature for 60 minutes and stopped by addition of 5 ul of stop solution consisting of 20 mM EDTA, 0.1% BSA, 1% Triton-X-100, 0.01% Tween-20, 100 mM Tris pH8.0, 1:5,000 dilution of internally producted anti-pS79 (acetyl CoA carboxylase-1) purified rabbit polyclonal antibody, 40 ug/ml of AlphaScreen (Perkin Elmer) Acceptor beads and 40 ug/ml of AlphaScreen (Perkin Elmer) donor beads. The reaction mixture was further incubated at RT for 2 hours and analyzed on Fusion-Alpha microplate analyzer.
The AMPK assay was performed in a 25 ul reaction volume with the same reaction buffer as AMPK alpha assay at 30 C for 30 minutes. The reaction was stopped with SDS-PAGE sample buffer. The phosphorylated-GST-ACC was subjected to western blot analysis with anti-phospho-serine 79-ACC1 antibody (Cell Signaling Technologies). AMPK used in the assays described above was partially purified (Blazquez, C. et. al.).
The AMP-activated protein kinase is involved in the regulation of ketone body production by astrocytes. J. Neurochem. 73: 1674 (1999)) from HEKs (a human embryonic kidney cell line) and unless otherwise specified, chemicals used in the above assay were supplied by Sigma.

| Structure (SMILES) | EC50 [µM] |
| --- | --- |
| Oc1ccccc1-c1ccc(-c2ccc3[nH]ccc3c2)cc1 [Compound 1, 5-(2-Hydroxybiphenyl)-1H-indole] | 10 to 50 |
| N#Cc1c(O)nc2ccc(-c3ccc(-c4ccccc4O)cc3)cc2c1O [Compound 2, 6-(2-Hydroxybiphenyl)-2,4-dihydroxyquinoline-3-carbonitrile] | ≤ 10 |
| N#Cc1c(O)nc2cccc(-c3ccc(-c4ccccc4O)cc3)c2c1O [Compound 3, 5-(2-Hydroxybiphenyl)-2,4-dihydroxyquinoline-3-carbonitrile] | ≤ 10 |
| O=Cc1c[nH]c2ccc(-c3ccc(-c4ccccc4O)cc3)cc12 [Compound 4, 5-(2-Hydroxybiphenyl)-1H-indole-3-carbaldehyde] | 10 to 50 |
| N#Cc1c[nH]c2ccc(-c3ccc(-c4ccccc4O)cc3)cc12 [Compound 5, 5-(2-Hydroxybiphenyl)-1H-indole-3-carbonitrile] | ≤ 10 |
| O/N=C/c1c[nH]c2ccc(-c3ccc(-c4ccccc4O)cc3)cc12 [Compound 6, 5-(2-Hydroxybiphenyl)-1H-indole-3-carbaldehyde oxime] | ≥ 50 |
| N#Cc1c(O)nc2nc(-c3ccc(-c4ccccc4O)cc3)[nH]c2c1O [Compound 7, 3-(2-Hydroxybiphenyl)-4,6-dihydroxyimidazo[5,4-b]pyridine-5-carbonitrile] | ≤ 10 |
| N#Cc1c(O)nc2ncc(-c3ccc(-c4ccccc4O)cc3)cc2c1O [Compound 8, 6-(2-Hydroxybiphenyl)-2,4-dihydroxy-1,8-naphthyridine-3-carbonitrile] | ≤ 10 |
| N#Cc1c(O)cc2onc(-c3ccc(-c4ccccc4O)cc3)c2c1O [Compound 9, 3-(2-Hydroxybiphenyl)-4,6-dihydroxyisoxazolo[5,4-b]pyridine-5-carbonitrile] | 10 to 50 |
